Experimental data: PubChem BioAssay (NCI)
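These data come from cells grown in 96-well plates and exposed to compound for 48 hours at five concentrations. GI50 marks 50% less growth. TGI denotes the concentration required for complete inhibition of growth.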

Assays:
Assay in all cases: inhibition of tumour cell growth, NCI panel, 48 h
786-0 renal = test system: 786-0 renal
A498 renal = test system: A498 renal
ACHN renal = test system: ACHN renal
BT-549 breast = test system: BT-549 breast
CCRF-CEM leukemia = test system: CCRF-CEM leukemia
COLO 205 colon = test system: COLO 205 colon
DLD-1 colon = test system: DLD-1 colon
DMS 114 small cell lung = test system: DMS 114 small cell lung
DMS 273 small cell lung = test system: DMS 273 small cell lung
HCT-116 colon = test system: HCT-116 colon
HCT-15 colon = test system: HCT-15 colon
HL-60(TB) leukemia = test system: HL-60(TB) leukemia
HOP-18 NSCLC = test system: HOP-18 NSCLC
HOP-62 NSCLC = test system: HOP-62 NSCLC
HOP-92 NSCLC = test system: HOP-92 NSCLC
HT29 colon = test system: HT29 colon
K-562 leukemia = test system: K-562 leukemia
KM20L2 colon = test system: KM20L2 colon
LOX IMVI melanoma = test system: LOX IMVI melanoma
LXFL 529 NSCLC = test system: LXFL 529 NSCLC
M14 melanoma = test system: M14 melanoma
M19-MEL melanoma = test system: M19-MEL melanoma
MALME-3M melanoma = test system: MALME-3M melanoma
MCF7 breast = test system: MCF7 breast
MDA-MB-231 breast = test system: MDA-MB-231 breast
MDA-MB-435 = test system: MDA-MB-435
MOLT-4 leukemia = test system: MOLT-4 leukemia
NCI-H226 lung = test system: NCI-H226 lung
NCI-H23 lung = test system: NCI-H23 lung
NCI/ADR-RES ovarian = test system: NCI/ADR-RES ovarian
OVCAR-4 ovarian = test system: OVCAR-4 ovarian
OVCAR-5 ovarian = test system: OVCAR-5 ovarian
OVCAR-8 ovarian = test system: OVCAR-8 ovarian
RPMI-8226 leukemia = test system: RPMI-8226 leukemia
RXF 393 renal = test system: RXF 393 renal
SF-539 CNS = test system: SF-539 CNS
SK-MEL-28 melanoma = test system: SK-MEL-28 melanoma
SK-MEL-5 melanoma = test system: SK-MEL-5 melanoma
SK-OV-3 ovarian = test system: SK-OV-3 ovarian
SN12C renal = test system: SN12C renal
SNB-75 CNS = test system: SNB-75 CNS
SNB-78 CNS = test system: SNB-78 CNS
SR leukemia = test system: SR leukemia
SW-620 colon = test system: SW-620 colon
T-47D breast = test system: T-47D breast
UACC-257 melanoma = test system: UACC-257 melanoma
UACC-62 melanoma = test system: UACC-62 melanoma
UO-31 renal = test system: UO-31 renal
XF 498 CNS = test system: XF 498 CNS

## O=C1C=CC=C[C@@H]2C(C3OCCO3)CC[C@H]12.[C-]#[O+].[C-]#[O+].[C-]#[O+].[Fe] (stereo partly specified)
786-0 renal
  GI50: > 69.3 µM
  TGI: > 100 µM
A498 renal
  GI50: > 100 µM
  TGI: > 100 µM
ACHN renal
  GI50: 34.8 µM
  TGI: > 65.6 µM
BT-549 breast
  GI50: 51.4 µM
  TGI: > 100 µM
CCRF-CEM leukemia
  GI50: 24.4 µM
  TGI: > 89.8 µM
COLO 205 colon
  GI50: 49.9 µM
  TGI: > 70.4 µM
DLD-1 colon
  GI50: 19.8 µM
  TGI: 45 µM
DMS 114 small cell lung
  GI50: 20.1 µM
  TGI: 45.2 µM
DMS 273 small cell lung
  GI50: 30.6 µM
  TGI: > 100 µM
HCT-116 colon
  GI50: 18.9 µM
  TGI: 41.5 µM
HCT-15 colon
  GI50: 55.7 µM
  TGI: > 95.4 µM
HL-60(TB) leukemia
  TGI: > 100 µM
HOP-18 NSCLC
  GI50: > 52.8 µM
  TGI: > 85.1 µM
HOP-62 NSCLC
  GI50: > 95.3 µM
  TGI: > 100 µM
HOP-92 NSCLC
  GI50: > 100 µM
  TGI: > 100 µM
HT29 colon
  GI50: 42.6 µM
  TGI: > 100 µM
K-562 leukemia
  GI50: 41.6 µM
  TGI: > 100 µM
KM20L2 colon
  GI50: > 100 µM
  TGI: > 100 µM
LOX IMVI melanoma
  GI50: 1.09 µM
  TGI: 5.66 µM
LXFL 529 NSCLC
  GI50: 15.6 µM
  TGI: 29.4 µM
M14 melanoma
  GI50: 37.8 µM
  TGI: > 74.9 µM
M19-MEL melanoma
  GI50: 19.9 µM
  TGI: 37 µM
MALME-3M melanoma
  GI50: 27.9 µM
  TGI: 62.3 µM
MCF7 breast
  GI50: 37.3 µM
  TGI: > 100 µM
MDA-MB-231 breast
  GI50: > 100 µM
  TGI: > 100 µM
MDA-MB-435
  GI50: 31.3 µM
  TGI: > 100 µM
MOLT-4 leukemia
  GI50: 26.5 µM
  TGI: 68.1 µM
NCI-H226 lung
  GI50: > 83.5 µM
  TGI: > 100 µM
NCI-H23 lung
  GI50: > 52.8 µM
  TGI: > 83.7 µM
NCI/ADR-RES ovarian
  GI50: > 100 µM
  TGI: > 100 µM
OVCAR-4 ovarian
  GI50: > 47.9 µM
  TGI: > 71.9 µM
OVCAR-5 ovarian
  GI50: > 100 µM
  TGI: > 100 µM
OVCAR-8 ovarian
  GI50: 24.8 µM
  TGI: 65.1 µM
RPMI-8226 leukemia
  GI50: 26.8 µM
  TGI: > 82.4 µM
RXF 393 renal
  GI50: 23.4 µM
  TGI: 67 µM
SF-539 CNS
  GI50: 44.6 µM
  TGI: 77.2 µM
SK-MEL-28 melanoma
  TGI: > 46.9 µM
SK-MEL-5 melanoma
  GI50: > 100 µM
  TGI: > 100 µM
SK-OV-3 ovarian
  GI50: > 96 µM
  TGI: > 100 µM
SN12C renal
  GI50: 76.3 µM
  TGI: > 100 µM
SNB-75 CNS
  GI50: > 100 µM
  TGI: > 100 µM
SNB-78 CNS
  GI50: 22.8 µM
  TGI: 66 µM
SR leukemia
  GI50: 18.4 µM
  TGI: > 83.5 µM
SW-620 colon
  GI50: 29.9 µM
  TGI: > 100 µM
T-47D breast
  GI50: > 100 µM
  TGI: > 100 µM
UACC-257 melanoma
  GI50: 98.5 µM
  TGI: > 100 µM
UACC-62 melanoma
  GI50: > 59.8 µM
  TGI: > 100 µM
UO-31 renal
  GI50: 42.7 µM
  TGI: > 78.4 µM
XF 498 CNS
  GI50: > 100 µM
  TGI: > 100 µM
